# Patent publication US8697709B2, “Fused ring heteroaryl kinase inhibitors” (The Regents of the University of California, priority 2008, dated 2014)
# Test system: T315I Bcr-Abl BaF3 cells
# Assay: Cell proliferation (Resazurin) of T315I Bcr-Abl transduced BaF3 cells
# Type: cell-based
# Conditions: two day treatment, without IL-3
smiles,measurement,value
"CC(C)n1nc(-c2ccc(NC(=O)Nc3cccc(C(F)(F)F)c3)cc2)c2c(N)ncnc21 [AD57, 1-(4-(4-amino-1-isopropyl-1H-pyrazolo[3,4-d]pyrimidin-3-yl)phenyl)-3-(3-(trifluoromethyl)phenyl)urea]",inhibition of growth of T315I Bcr-Abl BaF3 cells,equally inhibits the growth
